Measurements reported in article PMC11445722, “Synthesis, Characterization, and Biological Evaluation of Novel [M(η^6-arene)2]^+ (M = Re, ^99mTc) Hosted Terpyridines and Copper Complexes Thereof” (Inorganic Chemistry, 2024).

Key:
Format in all cases: cell-based
[1] = tested on: A549 (human lung adenocarcinoma); experiment: Cell viability (resazurin) assay, 2D model, A549; conditions: 48 h incubation, three independent experiments, read-out: IC50 ± SEM, A549
Protocol: (§1) First, the cytotoxic activity of the compounds was investigated in different cancerous and noncancerous cell lines, namely, HT29 (human colon adenocarcinoma), A549 (human lung adenocarcinoma), and RPE-1 (human retinal epithelium). Cisplatin was used as a positive control. Cells were first incubated for 48 h with the complexes before cell viability was measured with a colorimetric resazurin assay.
(§2) Ce ll Culture: T he RPE-1 c ell l ine wa s cul ture d in DME M /F12 med iu m (G ibco) . T h e HT29 c ell line was
culture d in McCoy me dium (Gibco).
(§3) All ce ll line s were co mple me nted wit h 10% o f fetal calf ser um ( Gibco) and 100 U.mL-1 penicillin-
(§4) streptomycin mixture (Gibco) and maintained in a humidiﬁed atmosphere at 37 °C and 5% CO2.
(§5) Cell Viability Assay using a 2D Cellular Model: The cytotoxicity of the compounds was assessed by a
(§6) ﬂuorometric ce ll viability assay using Resazurin (Acros Organics) . Brieﬂy, ce l ls were s ee de d in tri pl ic ate
(§7) in 96-well plates at a 4×10^3 cells/well density in 100 μL Gibco McCoy’s 5A (1X) + GlutaMAX (Modiﬁed
(§8) Medium) with 10 % FBS and 1% Penicillin/Streptomycin. AŌer 24 h, cells were treated with increasing
(§9) concentraƟons of the compo unds and cisplaƟn. DiluƟons for the compounds were prepared f rom 10
(§10) mM stock in DMSO which were diluted to 100 - 0,01 μM with medium. AŌer 48 h of incubaƟon, the
(§11) medium was removed and 100 μL of complete medium containing resazurin (0.2 mg.mL-1 ﬁnal
(§12) concentraƟon) was adde d. AŌer 4 h of incubaƟon at 37 °C, the ﬂuoresc ence signal of the resoruﬁn
(§13) values were then calculated using the GraphPad Prism soŌware.

[2] = tested on: HT29 (human colon adenocarcinoma); experiment: Cell viability (resazurin) assay, 2D model, HT29; conditions: 48 h incubation, three independent experiments, read-out: IC50 ± SEM, HT29
Protocol: as §1, §2
culture d in McCoy me dium (Gibco).
as §3, §4, §5, §6, §7, §8, §9, §10, §11, §12, §13

[3] = tested on: RPE-1 (human retinal epithelium); experiment: Cell viability (resazurin) assay, 2D model, RPE-1; conditions: 48 h incubation, noncancerous cell line, three independent experiments, read-out: IC50 ± SEM, RPE-1
Protocol: as §1, §2
culture d in McCoy me dium (Gibco).
as §3, §4, §5, §6, §7, §8, §9, §10, §11, §12, §13

| SMILES | IC50 [1] | IC50 [2] | IC50 [3] |
| --- | --- | --- | --- |
| N.[O]=[Re](=[O])(=[O])[OH] [(NH4)[ReO4]] | > 100 µM | > 100 µM | > 100 µM |
| [Cl][Cu][Cl] [CuCl2] | > 100 µM | > 100 µM | > 100 µM |
| N.N.[Cl][Pt][Cl] [cisplatin] | 10.9 ± 0.17 µM | 7.84 ± 0.57 µM | 22.6 ± 2.74 µM |
